Reference: patent US7951807B2 (Abbott GmbH & Co. KG, priority 2004, dated 2011)
Structures can show the parent of a compound that is named as a salt.

The molecules below were run against T1, human V1a receptors (Homo sapiens) (assay: Vasopressin V1a Receptor Binding Test). Conditions: membranes of CHO cells with stably expressed human V1a receptors, 125 iodine AVP displacement.
T1 construct: expressed in transfected cells
Procedure: Vasopressin V1a Receptor Binding Test
(§1) The substances were dissolved in DMSO in a concentration of 10^−2 M and further diluted in DMSO to 10^−3 M to 10^−9 M. These DMSO solutions were diluted 1:10 with a test buffer. In the test batch, the substance concentration was again diluted 1:10.
The binding test was conducted according to the method of Tahara et al. (Tahara A. et al., Brit. J. Pharmacol. 125, 1463-1470 (1998)). In the test batch (0.250 ml), membranes (50 μg protein in an incubation buffer (50 mmol tris, 10 mmol MgCl2, 0.1% BSA adjusted to pH 7.4 with HCl)) of CHO cells were incubated with stably expressed human V1a receptors (preparation V1a clone 5.0, with protease inhibitors, Roche complete Mini # 1836170) with 0.04 nmol 125 iodine AVP (NEX128) in the incubation buffer (total binding) or additionally with increasing concentrations of the test substance (displacement experiment). The non-specific binding was determined with 10^−6 M AVP. Determinations were carried out three times.
(§2) After incubation, 60 minutes at room temperature, the free radioligand was filtered off using vacuum filtration (Skatron cell harvester 7000) through Wathman GF/B fibreglass filters, and the filters were transferred to scintillation containers.
(§3) The liquid scintillation measurement was made in a Tricarb device, model 2000 or 2200CA (Packard). The conversion of the measured cpm into dpm was carried out with the help of a standard quench series.
(§4) The binding parameters were calculated using non-linear regression in SAS. The algorithms of the program work in a manner analogous to the LIGAND evaluation program (Munson P J und Rodbard D, Analytical Biochem. 107, 220-239 (1980)).
`COc1ccccc1C1(OC(=O)N2CCN(C3CCN(C)CC3)CC2)C(=O)N(S(=O)(=O)c2ccccc2)c2ccc(Cl)cc21` (stereo not drawn) [Example 1] gave a Ki of under 100 nM.
For `COc1ccc(S(=O)(=O)N2C(=O)C(NC(=O)N3CCN(C4CCN(C)CC4)CC3)(c3ccccc3OC)c3cc(Cl)ccc32)c(OC)c1` (stereo not drawn) [Example 3, 4-(1-Methyl-piperidine-4-yl)-piperazine-1-carboxylic acid-[1-(2,4-dimethoxy-benzenesulfonyl)-5-chloro-2-oxo-3-(2-methoxyphenyl)-2,3-dihydro-1H-indole-3-yl] amide dihydrochloride], the Ki was under 100 nM.
`CN1CCC(N2CCN(C(=O)OC3(c4ccccc4)C(=O)N(S(=O)(=O)c4ccccc4)c4ccc(Cl)cc43)CC2)CC1` (stereo not drawn) [Example 4, 4-(1-Methyl-piperidine-4-yl)-piperazine-1-carboxylic acid-[1-benzenesulfonyl-5-chloro-2-oxo-3-phenyl-2,3-dihydro-1H-indole-3-yl] ester dihydrochloride] gave a Ki of under 100 nM.
In the case of `CN1CCN(C2CCN(C(=O)OC3(c4ccccc4)C(=O)N(S(=O)(=O)c4ccccc4)c4ccc(Cl)cc43)CC2)CC1` (stereo not drawn) [Example 5, 4-(4-Methyl-piperazine-1-yl)-piperidine-1-carboxylic acid-[1-benzenesulfonyl-5-chloro-2-oxo-3-phenyl-2,3-dihydro-1H-indole-3-yl] ester], the Ki is reported as under 100 nM.
For `COc1ccc(S(=O)(=O)N2C(=O)C(OC(=O)N3CCN(C4CCN(C)CC4)CC3)(c3ccccc3C)c3cc(OC)ccc32)c(OC)c1` (stereo not drawn) [Example 8, 4-(1-Methyl-piperidine-4-yl)-piperazine-1-carboxylic acid-[1-(2,4-dimethoxy-benzenesulfonyl)-5-methoxy-2-oxo-3-(2-methylphenyl)-2,3-dihydro-1H-indole-3-yl] ester dihydrochloride], the Ki was under 100 nM.
`COc1ccc(S(=O)(=O)N2C(=O)C(OC(=O)N3CCN(C4CCN(Cc5ccccc5)CC4)CC3)(c3ccccc3OC)c3cc(OC)ccc32)c(OC)c1` (stereo not drawn) [Example 13, 4-(1-Benzyl-piperidine-4-yl)-piperazine-1-carboxylic acid-[1-(2,4-dimethoxy-benzenesulfonyl)-5-methoxy-2-oxo-3-(2-methoxyphenyl)-2,3-dihydro-1H-indole-3-yl] ester] was tested, and the Ki was under 100 nM.

These molecules were tested against T2, human V1b receptors (Homo sapiens, UniProt P47901) (assay: Vasopressin V1b Receptor Binding Test). Conditions: membranes of CHO-K1 cells with stably expressed human V1b receptors, 3H-AVP displacement.
T2 construct: expressed in transfected cells
T2 sequence (P47901 1-424): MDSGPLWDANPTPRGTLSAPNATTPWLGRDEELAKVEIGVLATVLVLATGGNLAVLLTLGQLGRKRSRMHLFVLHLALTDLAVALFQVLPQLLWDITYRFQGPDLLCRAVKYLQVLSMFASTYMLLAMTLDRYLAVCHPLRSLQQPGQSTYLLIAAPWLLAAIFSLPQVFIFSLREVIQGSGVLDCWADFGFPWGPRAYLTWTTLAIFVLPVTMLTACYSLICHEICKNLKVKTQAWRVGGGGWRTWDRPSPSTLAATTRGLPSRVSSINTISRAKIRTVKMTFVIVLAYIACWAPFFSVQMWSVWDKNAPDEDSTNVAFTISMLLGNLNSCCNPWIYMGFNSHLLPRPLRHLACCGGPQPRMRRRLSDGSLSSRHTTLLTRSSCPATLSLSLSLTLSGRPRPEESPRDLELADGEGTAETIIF
Procedure: Vasopressin V1b Receptor Binding Test
as §1
The binding test was conducted according to the method of Tahara et al. (Tahara A. et al., Brit. J. Pharmacol. 125, 1463-1470 (1998)). In the test batch (0.250 ml), membranes (58 μg protein in an incubation buffer) of CHO-K1 cells were incubated with stably expressed human V1b receptors (preparation V1b-3H2, with protease inhibitors, Roche complete Mini # 1836170) with 1.5 nmol ^3H-AVP (8-Arg-Vasopressin, NET 800) in incubation buffer (50 mmol Tris, 10 mmol MgCl2, 0.1% BSA adjusted to pH 7.4 with HCl) (total binding) or additionally with increasing concentrations of the test substance (displacement experiment). The non-specific binding was determined with 10^−6 M AVP. Determinations were carried out three times.
Incubation buffer: 50 mmol tris, 10 mmol MgCl2, 0.1% BSA adjusted to pH 7.4 with HCl.
as §2, §3, §4
With `CCCOc1ccccc1C1(OC(=O)N2CCN(C3CCN(C)CC3)CC2)C(=O)N(S(=O)(=O)c2ccc(OC)cc2OC)c2ccc(OC)cc21` (stereo not drawn) [Example 2, 4-(1-Methyl-piperidine-4-yl)-piperazine-1-carboxylic acid-[1-(2,4-dimethoxy-benzenesulfonyl)-5-methoxy-2-oxo-3-(2-propoxyphenyl)-2,3-dihydro-1H-indole-3-yl] ester] the Ki was under 100 nM.
Molecule `COc1ccc(S(=O)(=O)N2C(=O)C(OC(=O)N3CCN(C4CCN(C)CC4)CC3)(c3ccccc3OC)c3cc(OC)ccc32)c(OC)c1` (stereo not drawn) [Example 6, 4-(1-Methyl-piperidine-4-yl)-piperazine-1-carboxylic acid-[1-(2,4-dimethoxy-benzenesulfonyl)-5-methoxy-2-oxo-3-(2-methoxyphenyl)-2,3-dihydro-1H-indole-3-yl] ester dihydrochloride] has a Ki of under 100 nM.
`COc1ccc(S(=O)(=O)N2C(=O)C(OC(=O)N3CCN(C4CCN(C)CC4)CC3)(c3ccccc3OC)c3cc(F)ccc32)c(OC)c1` (stereo not drawn) [Example 10, 4-(1-Methyl-piperidine-4-yl)-piperazine-1-carboxylic acid-[1-(2,4-dimethoxy-benzenesulfonyl)-5-fluoro-2-oxo-3-(2-methoxyphenyl)-2,3-dihydro-1H-indole-3-yl] ester] showed a Ki of under 100 nM.
`COc1ccc(S(=O)(=O)N2C(=O)C(NC(=O)N3CCN(C4CCN(C)CC4)CC3)(c3ccccc3OC)c3cc(OC)ccc32)c(OC)c1` (stereo not drawn) [Example 16, 4-(1-Methyl-piperidine-4-yl)-piperazine-1-carboxylic acid-[1-(2,4-dimethoxy-benzenesulfonyl)-5-methoxy-2-oxo-3-(2-methoxyphenyl)-2,3-dihydro-1H-indole-3-yl] amide dihydrochloride] showed a Ki of under 100 nM.
Molecule `COc1ccc(S(=O)(=O)N2C(=O)C(OC(=O)N3CCN(C4CCN(C)CC4)CC3)(c3ccccc3OC)c3cc(C)ccc32)c(OC)c1` (stereo not drawn) [Example 17, 4-(1-Methyl-piperidine-4-yl)-piperazine-1-carboxylic acid-[1-(2,4-dimethoxy-benzenesulfonyl)-5-methyl-2-oxo-3-(2-methoxyphenyl)-2,3-dihydro-1H-indole-3-yl] ester dihydrochloride] has a Ki of under 100 nM.
For `COc1ccc(S(=O)(=O)N2C(=O)C(OC(=O)N3CCN(C4CCN(C)CC4)CC3)(c3ccccc3OC)c3ccccc32)c(OC)c1` (stereo not drawn) [Example 23, 4-(1-Methyl-piperidine-4-yl)-piperazine-1-carboxylic acid-[1-(2,4-dimethoxy-benzenesulfonyl)-2-oxo-3-(2-methoxyphenyl)-2,3-dihydro-1H-indole-3-yl] ester dihydrochloride], the Ki was under 100 nM.
`COc1ccc(S(=O)(=O)N2C(=O)C(OC(=O)N3CCN(C4CCN(C)CC4)CC3)(c3ccccc3OC(C)C)c3cc(OC)ccc32)c(OC)c1` (stereo not drawn) [Example 24, 4-(1-Methyl-piperidine-4-yl)-piperazine-1-carboxylic acid-[1-(2,4-dimethoxy-benzenesulfonyl)-5-methoxy-2-oxo-3-(2-isopropoxyphenyl)-2,3-dihydro-1H-indole-3-yl] ester dihydrochloride] showed a Ki of under 100 nM.
`COc1ccc2c(c1)C(OC(=O)N1CCN(C3CCN(C)CC3)CC1)(c1ccccc1OC(C)C)C(=O)N2S(=O)(=O)c1ccc(C)cc1OC` (stereo not drawn) [Example 26, 4-(1-Methyl-piperidine-4-yl)-piperazine-1-carboxylic acid-[1-(2-methoxy-4-methyl-benzene)-sulfonyl-5-methoxy-2-oxo-3-(2-isopropoxyphenyl)-2,3-dihydro-1H-indole-3-yl] ester dihydrochloride] was tested, and the Ki was under 100 nM.
Work on `CCOc1ccccc1C1(OC(=O)N2CCN(C3CCN(C)CC3)CC2)C(=O)N(S(=O)(=O)c2ccc(OC)cc2OC)c2ccc(OC)cc21` (stereo not drawn) [Example 30, 4-(1-Methyl-piperidine-4-yl)-piperazine-1-carboxylic acid-[1-(2,4-dimethoxy-benzenesulfonyl)-5-methoxy-2-oxo-3-(2-ethoxyphenyl)-2,3-dihydro-1H-indole-3-yl] ester dihydrochloride] yielded a Ki of under 100 nM.
